Laboratory results from the kinase profiling compilation of Christmann-Franck et al. (2016).

Assays:
[1] = molecular target: FES (human) (UniProt P07332); test: Z-Lyte, FRET
[2] = molecular target: ADCK4 (human) (UniProt Q96D53); test: KINOMEscan competition binding; conditions: compound 10.0 µM
[3] = molecular target: ALK (human) (UniProt Q9UM73); test: KINOMEscan competition binding; conditions: compound 10.0 µM
[4] = molecular target: BLK (human) (UniProt P51451); test: KINOMEscan competition binding; conditions: compound 10.0 µM
[5] = molecular target: CDC42BPB (human) (UniProt Q9Y5S2); test: KINOMEscan competition binding; conditions: compound 10.0 µM
[6] = molecular target: CDK14 (human) (UniProt O94921); test: KINOMEscan competition binding; conditions: compound 10.0 µM
Chain of CDK14 (human) (O94921 whole entry, looked up): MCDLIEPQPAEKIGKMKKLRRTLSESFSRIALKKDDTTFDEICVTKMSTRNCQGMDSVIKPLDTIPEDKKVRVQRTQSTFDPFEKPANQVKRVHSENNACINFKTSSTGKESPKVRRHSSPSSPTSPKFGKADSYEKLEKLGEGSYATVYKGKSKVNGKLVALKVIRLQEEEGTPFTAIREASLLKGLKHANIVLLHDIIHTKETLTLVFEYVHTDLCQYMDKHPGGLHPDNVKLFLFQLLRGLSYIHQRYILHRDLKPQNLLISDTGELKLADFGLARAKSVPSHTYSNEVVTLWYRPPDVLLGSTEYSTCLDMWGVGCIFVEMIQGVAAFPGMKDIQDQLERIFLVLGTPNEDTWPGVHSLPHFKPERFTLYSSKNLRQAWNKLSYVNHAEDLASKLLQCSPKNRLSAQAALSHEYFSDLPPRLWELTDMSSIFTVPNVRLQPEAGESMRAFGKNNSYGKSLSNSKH

[7] = molecular target: CHUK (human) (UniProt O15111); test: KINOMEscan competition binding; conditions: compound 10.0 µM
[8] = molecular target: CSNK1G1 (human) (UniProt Q9HCP0); test: KINOMEscan competition binding; conditions: compound 10.0 µM
[9] = test system: EGFR (human), P00533 [L858R]; test: KINOMEscan competition binding; conditions: compound 10.0 µM
[10] = test system: FLT3 (human), P36888 [N841I]; test: KINOMEscan competition binding; conditions: compound 10.0 µM
[11] = molecular target: GAK (human) (UniProt O14976); test: KINOMEscan competition binding; conditions: compound 10.0 µM
[12] = molecular target: IKBKB (human) (UniProt O14920); test: KINOMEscan competition binding; conditions: compound 10.0 µM
[13] = molecular target: INSR (human) (UniProt P06213); test: KINOMEscan competition binding; conditions: compound 10.0 µM
[14] = molecular target: ITK (human) (UniProt Q08881); test: KINOMEscan competition binding; conditions: compound 10.0 µM
[15] = test system: KIT (human), P10721 [V559D/V654A]; test: KINOMEscan competition binding; conditions: compound 10.0 µM
Chain of KIT (human), P10721 [V559D/V654A] (P10721 whole entry V559D/V654A, looked up): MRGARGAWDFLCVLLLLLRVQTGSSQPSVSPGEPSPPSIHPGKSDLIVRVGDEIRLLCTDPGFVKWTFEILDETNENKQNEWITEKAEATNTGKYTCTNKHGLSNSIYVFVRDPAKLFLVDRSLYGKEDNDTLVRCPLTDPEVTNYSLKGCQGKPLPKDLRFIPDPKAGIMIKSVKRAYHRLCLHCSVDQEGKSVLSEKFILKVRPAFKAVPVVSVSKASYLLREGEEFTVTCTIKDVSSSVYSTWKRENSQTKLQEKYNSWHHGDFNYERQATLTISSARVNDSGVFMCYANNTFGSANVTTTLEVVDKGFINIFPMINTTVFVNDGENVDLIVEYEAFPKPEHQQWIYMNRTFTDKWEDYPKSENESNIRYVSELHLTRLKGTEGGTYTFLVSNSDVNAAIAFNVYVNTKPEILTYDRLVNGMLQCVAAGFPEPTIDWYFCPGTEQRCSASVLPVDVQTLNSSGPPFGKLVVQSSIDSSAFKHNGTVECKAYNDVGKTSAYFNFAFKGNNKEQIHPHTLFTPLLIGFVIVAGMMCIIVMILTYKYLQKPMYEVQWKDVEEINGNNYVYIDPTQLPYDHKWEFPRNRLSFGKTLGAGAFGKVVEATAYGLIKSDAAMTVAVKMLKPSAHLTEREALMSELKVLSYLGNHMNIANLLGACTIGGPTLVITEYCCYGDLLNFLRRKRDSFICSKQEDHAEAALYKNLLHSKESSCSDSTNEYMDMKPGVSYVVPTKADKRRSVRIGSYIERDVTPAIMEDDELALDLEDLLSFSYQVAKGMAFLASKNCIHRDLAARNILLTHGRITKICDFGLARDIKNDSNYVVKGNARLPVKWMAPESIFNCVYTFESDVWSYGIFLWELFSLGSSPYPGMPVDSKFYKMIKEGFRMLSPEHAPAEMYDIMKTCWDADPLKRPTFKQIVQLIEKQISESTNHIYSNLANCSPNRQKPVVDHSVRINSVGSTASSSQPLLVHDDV

[16] = molecular target: LATS2 (human) (UniProt Q9NRM7); test: KINOMEscan competition binding; conditions: compound 10.0 µM
[17] = molecular target: MAP2K3 (human) (UniProt P46734); test: KINOMEscan competition binding; conditions: compound 10.0 µM
[18] = molecular target: MAPK1 (human) (UniProt P28482); test: KINOMEscan competition binding; conditions: compound 10.0 µM
[19] = molecular target: MAPK12 (human) (UniProt P53778); test: KINOMEscan competition binding; conditions: compound 10.0 µM
Chain of MAPK12 (human) (P53778 whole entry, looked up): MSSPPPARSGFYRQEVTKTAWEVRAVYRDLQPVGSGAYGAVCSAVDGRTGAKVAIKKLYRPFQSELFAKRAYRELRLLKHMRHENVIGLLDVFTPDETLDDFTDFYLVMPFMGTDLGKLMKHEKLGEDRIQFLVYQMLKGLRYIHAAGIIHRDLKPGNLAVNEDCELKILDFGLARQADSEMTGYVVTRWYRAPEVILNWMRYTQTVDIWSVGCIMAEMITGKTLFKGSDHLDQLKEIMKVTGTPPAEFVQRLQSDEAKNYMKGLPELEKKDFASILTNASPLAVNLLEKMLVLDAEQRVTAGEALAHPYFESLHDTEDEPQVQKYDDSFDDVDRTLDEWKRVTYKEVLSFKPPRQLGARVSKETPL

[20] = molecular target: MAPK8 (human) (UniProt P45983); test: KINOMEscan competition binding; conditions: compound 10.0 µM
[21] = molecular target: MAPKAPK5 (human) (UniProt Q8IW41); test: KINOMEscan competition binding; conditions: compound 10.0 µM
Chain of MAPKAPK5 (human) (Q8IW41 whole entry, looked up): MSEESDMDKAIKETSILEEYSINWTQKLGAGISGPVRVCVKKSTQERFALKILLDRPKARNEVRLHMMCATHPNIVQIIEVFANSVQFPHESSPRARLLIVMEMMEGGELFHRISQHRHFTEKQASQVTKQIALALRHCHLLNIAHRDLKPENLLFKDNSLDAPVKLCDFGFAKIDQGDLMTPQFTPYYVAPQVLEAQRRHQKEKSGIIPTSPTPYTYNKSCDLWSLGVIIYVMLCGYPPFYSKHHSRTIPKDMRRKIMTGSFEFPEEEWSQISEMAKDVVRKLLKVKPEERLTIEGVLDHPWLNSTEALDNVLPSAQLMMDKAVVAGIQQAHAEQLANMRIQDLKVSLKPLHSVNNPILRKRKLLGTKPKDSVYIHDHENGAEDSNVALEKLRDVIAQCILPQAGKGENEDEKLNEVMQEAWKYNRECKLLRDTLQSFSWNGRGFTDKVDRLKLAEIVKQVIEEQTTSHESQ

[22] = molecular target: MARK4 (human) (UniProt Q96L34); test: KINOMEscan competition binding; conditions: compound 10.0 µM
[23] = molecular target: MET (human) (UniProt P08581); test: KINOMEscan competition binding; conditions: compound 10.0 µM
Chain of MET (human) (P08581 whole entry, looked up): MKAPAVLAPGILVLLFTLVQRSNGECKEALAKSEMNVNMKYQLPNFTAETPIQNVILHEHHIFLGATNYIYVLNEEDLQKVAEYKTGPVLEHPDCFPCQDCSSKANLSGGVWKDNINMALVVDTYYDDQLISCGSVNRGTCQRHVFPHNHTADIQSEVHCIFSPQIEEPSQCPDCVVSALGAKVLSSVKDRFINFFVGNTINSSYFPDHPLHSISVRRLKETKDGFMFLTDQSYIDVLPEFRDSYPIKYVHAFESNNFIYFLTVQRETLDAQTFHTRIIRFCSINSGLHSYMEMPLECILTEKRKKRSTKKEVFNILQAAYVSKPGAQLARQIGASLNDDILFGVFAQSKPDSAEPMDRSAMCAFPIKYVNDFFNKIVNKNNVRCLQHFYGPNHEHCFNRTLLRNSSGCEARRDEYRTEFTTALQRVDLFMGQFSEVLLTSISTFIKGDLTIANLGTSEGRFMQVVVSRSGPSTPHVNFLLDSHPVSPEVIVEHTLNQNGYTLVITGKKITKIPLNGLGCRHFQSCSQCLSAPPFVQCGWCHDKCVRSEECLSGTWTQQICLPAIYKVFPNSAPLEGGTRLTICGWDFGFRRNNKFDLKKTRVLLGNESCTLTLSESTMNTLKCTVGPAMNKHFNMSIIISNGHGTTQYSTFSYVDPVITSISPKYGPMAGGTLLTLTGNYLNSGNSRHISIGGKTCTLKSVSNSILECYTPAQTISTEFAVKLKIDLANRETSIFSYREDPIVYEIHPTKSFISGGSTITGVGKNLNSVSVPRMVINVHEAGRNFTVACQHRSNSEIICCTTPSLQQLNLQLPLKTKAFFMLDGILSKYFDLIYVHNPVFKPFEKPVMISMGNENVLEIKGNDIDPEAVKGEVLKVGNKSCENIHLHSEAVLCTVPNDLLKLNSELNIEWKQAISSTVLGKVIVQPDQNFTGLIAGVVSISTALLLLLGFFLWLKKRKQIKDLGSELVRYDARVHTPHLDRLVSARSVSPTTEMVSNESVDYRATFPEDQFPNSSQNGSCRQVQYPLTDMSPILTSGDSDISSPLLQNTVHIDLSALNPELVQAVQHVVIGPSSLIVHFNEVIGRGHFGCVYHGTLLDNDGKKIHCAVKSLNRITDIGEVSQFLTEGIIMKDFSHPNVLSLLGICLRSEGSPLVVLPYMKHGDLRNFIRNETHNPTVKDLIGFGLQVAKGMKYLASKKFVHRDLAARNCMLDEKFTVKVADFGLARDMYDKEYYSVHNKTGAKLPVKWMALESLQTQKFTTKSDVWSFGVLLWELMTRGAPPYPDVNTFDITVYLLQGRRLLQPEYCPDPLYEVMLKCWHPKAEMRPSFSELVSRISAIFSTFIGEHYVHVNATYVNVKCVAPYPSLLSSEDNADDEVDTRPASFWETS

[24] = molecular target: NEK9 (human) (UniProt Q8TD19); test: KINOMEscan competition binding; conditions: compound 10.0 µM
[25] = molecular target: PDGFRA (human) (UniProt P16234); test: KINOMEscan competition binding; conditions: compound 10.0 µM
[26] = molecular target: PIP5K1A (human) (UniProt Q99755); test: KINOMEscan competition binding; conditions: compound 10.0 µM
[27] = molecular target: PKMYT1 (human) (UniProt Q99640); test: KINOMEscan competition binding; conditions: compound 10.0 µM
[28] = molecular target: PRKACB (human) (UniProt P22694); test: KINOMEscan competition binding; conditions: compound 10.0 µM
[29] = molecular target: PRKD2 (human) (UniProt Q9BZL6); test: KINOMEscan competition binding; conditions: compound 10.0 µM
[30] = molecular target: ROS1 (human) (UniProt P08922); test: KINOMEscan competition binding; conditions: compound 10.0 µM
[31] = molecular target: RPS6KA1 KD1 (human) (UniProt Q15418); test: KINOMEscan competition binding; conditions: compound 10.0 µM
[32] = molecular target: RPS6KA5 KD1 (human) (UniProt O75582); test: KINOMEscan competition binding; conditions: compound 10.0 µM
[33] = molecular target: RPS6KA6 KD1 (human) (UniProt Q9UK32); test: KINOMEscan competition binding; conditions: compound 10.0 µM
[34] = molecular target: SRPK1 (human) (UniProt Q96SB4); test: KINOMEscan competition binding; conditions: compound 10.0 µM
[35] = molecular target: STK16 (human) (UniProt O75716); test: KINOMEscan competition binding; conditions: compound 10.0 µM
Chain of STK16 (human) (O75716 whole entry, looked up): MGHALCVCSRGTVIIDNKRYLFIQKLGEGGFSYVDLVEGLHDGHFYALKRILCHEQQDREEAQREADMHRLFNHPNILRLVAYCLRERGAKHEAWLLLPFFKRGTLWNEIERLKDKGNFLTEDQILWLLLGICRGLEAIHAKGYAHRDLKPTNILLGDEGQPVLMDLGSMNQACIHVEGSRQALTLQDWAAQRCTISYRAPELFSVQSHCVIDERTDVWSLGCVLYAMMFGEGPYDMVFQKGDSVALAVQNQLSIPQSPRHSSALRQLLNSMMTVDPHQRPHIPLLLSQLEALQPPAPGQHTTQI

[36] = molecular target: STK33 (human) (UniProt Q9BYT3); test: KINOMEscan competition binding; conditions: compound 10.0 µM
[37] = molecular target: TAOK3 (human) (UniProt Q9H2K8); test: KINOMEscan competition binding; conditions: compound 10.0 µM
[38] = molecular target: TGFBR1 (human) (UniProt P36897); test: KINOMEscan competition binding; conditions: compound 10.0 µM
Chain of TGFBR1 (human) (P36897 whole entry, looked up): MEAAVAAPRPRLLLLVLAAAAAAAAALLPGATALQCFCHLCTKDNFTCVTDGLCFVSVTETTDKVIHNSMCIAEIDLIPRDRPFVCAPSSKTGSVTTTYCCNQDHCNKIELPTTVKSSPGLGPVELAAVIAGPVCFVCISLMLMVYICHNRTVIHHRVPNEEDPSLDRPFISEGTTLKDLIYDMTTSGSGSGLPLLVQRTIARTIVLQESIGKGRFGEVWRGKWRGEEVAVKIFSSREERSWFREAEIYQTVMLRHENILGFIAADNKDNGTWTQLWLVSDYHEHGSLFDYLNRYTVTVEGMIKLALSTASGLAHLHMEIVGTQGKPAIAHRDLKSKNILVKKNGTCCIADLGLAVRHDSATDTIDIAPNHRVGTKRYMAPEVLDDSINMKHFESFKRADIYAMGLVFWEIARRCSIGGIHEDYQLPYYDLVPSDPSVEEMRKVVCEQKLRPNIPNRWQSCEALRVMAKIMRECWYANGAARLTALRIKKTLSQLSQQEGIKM

[39] = molecular target: TIE1 (human) (UniProt P35590); test: KINOMEscan competition binding; conditions: compound 10.0 µM
[40] = molecular target: TNK2 (human) (UniProt Q07912); test: KINOMEscan competition binding; conditions: compound 10.0 µM
[41] = molecular target: TSSK1B (human) (UniProt Q9BXA7); test: KINOMEscan competition binding; conditions: compound 10.0 µM
[42] = molecular target: ULK3 (human) (UniProt Q6PHR2); test: KINOMEscan competition binding; conditions: compound 10.0 µM
Chain of ULK3 (human) (Q6PHR2 whole entry, looked up): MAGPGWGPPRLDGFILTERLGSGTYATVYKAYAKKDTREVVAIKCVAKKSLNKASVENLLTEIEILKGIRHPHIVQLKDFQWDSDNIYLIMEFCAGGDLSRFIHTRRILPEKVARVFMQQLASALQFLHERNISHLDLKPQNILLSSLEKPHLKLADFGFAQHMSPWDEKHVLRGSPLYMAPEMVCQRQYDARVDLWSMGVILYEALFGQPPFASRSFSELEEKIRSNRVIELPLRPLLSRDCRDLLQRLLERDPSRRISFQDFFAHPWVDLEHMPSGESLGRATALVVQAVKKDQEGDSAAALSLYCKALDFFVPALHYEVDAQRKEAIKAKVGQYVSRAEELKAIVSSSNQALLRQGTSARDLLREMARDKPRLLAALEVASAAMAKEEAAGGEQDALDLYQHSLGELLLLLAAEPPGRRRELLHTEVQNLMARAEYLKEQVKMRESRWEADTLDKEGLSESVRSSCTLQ

Q: For `CCN1CCN(Cc2ccc(NC(=O)c3ccc(C)c(/C=C/c4cnc(Nc5cc(N6CCNCC6)nc(C)n5)cn4)c3)cc2C(F)(F)F)CC1`, which IC50 [1] is on record?
A: 224 µM

Q: What about the kinase still bound, per cent of control [2] of the same compound?
A: 93%

Q: What about the kinase still bound, per cent of control [3] of the same compound?
A: 100%

Q: And the kinase still bound, per cent of control [4]?
A: 0.1%

Q: What about the kinase still bound, per cent of control [5] of the same compound?
A: 100%

Q: What about the kinase still bound, per cent of control [6] of the same compound?
A: 88%

Q: And the kinase still bound, per cent of control [7]?
A: 0%

Q: What about the kinase still bound, per cent of control [8] of the same compound?
A: 100%

Q: And the kinase still bound, per cent of control [9]?
A: 3.4%

Q: And the kinase still bound, per cent of control [10]?
A: 0%

Q: What about the kinase still bound, per cent of control [11] of the same compound?
A: 51%

Q: And the kinase still bound, per cent of control [12]?
A: 0.95%

Q: What about the kinase still bound, per cent of control [13] of the same compound?
A: 65%

Q: What about the kinase still bound, per cent of control [14] of the same compound?
A: 86%

Q: What about the kinase still bound, per cent of control [15] of the same compound?
A: 3.7%

Q: What about the kinase still bound, per cent of control [16] of the same compound?
A: 36%

Q: And the kinase still bound, per cent of control [17]?
A: 100%

Q: And the kinase still bound, per cent of control [18]?
A: 100%

Q: And the kinase still bound, per cent of control [19]?
A: 39%

Q: And the kinase still bound, per cent of control [20]?
A: 24%

Q: And the kinase still bound, per cent of control [21]?
A: 80%

Q: And the kinase still bound, per cent of control [22]?
A: 100%

Q: What about the kinase still bound, per cent of control [23] of the same compound?
A: 78%

Q: And the kinase still bound, per cent of control [24]?
A: 27%

Q: What about the kinase still bound, per cent of control [25] of the same compound?
A: 2.8%

Q: And the kinase still bound, per cent of control [26]?
A: 86%

Q: What about the kinase still bound, per cent of control [27] of the same compound?
A: 100%

Q: And the kinase still bound, per cent of control [28]?
A: 90%

Q: And the kinase still bound, per cent of control [29]?
A: 76%

Q: And the kinase still bound, per cent of control [30]?
A: 100%

Q: What about the kinase still bound, per cent of control [31] of the same compound?
A: 100%

Q: What about the kinase still bound, per cent of control [32] of the same compound?
A: 100%

Q: And the kinase still bound, per cent of control [33]?
A: 100%

Q: And the kinase still bound, per cent of control [34]?
A: 77%

Q: What about the kinase still bound, per cent of control [35] of the same compound?
A: 100%

Q: What about the kinase still bound, per cent of control [36] of the same compound?
A: 90%

Q: What about the kinase still bound, per cent of control [37] of the same compound?
A: 0%

Q: And the kinase still bound, per cent of control [38]?
A: 99%

Q: And the kinase still bound, per cent of control [39]?
A: 2.8%

Q: What about the kinase still bound, per cent of control [40] of the same compound?
A: 32%

Q: What about the kinase still bound, per cent of control [41] of the same compound?
A: 100%

Q: What about the kinase still bound, per cent of control [42] of the same compound?
A: 1.6%
